In the supplement of paper PMC10307832 one finds relative viability data, which are given here for one cell line.

Common to all, as to experiment: relative viability (nuclei count vs DMSO), 5 days (fraction); higher = more cells survive
Compound in the assay “Pemetrexed + Decitabine”: Nc1nc2[nH]cc(CCc3ccc(C(=O)N[C@@H](CCC(=O)O)C(=O)O)cc3)c2c(=O)[nH]1 [Pemetrexed] + Nc1ncn([C@H]2C[C@H](O)[C@@H](CO)O2)c(=O)n1 [Decitabine] (partner 2 µM)
An outline of the steps:
(§1)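 For relative viability, nuclei counts in treated wells were divided by those in vehicle wells. Lung cancer cell lines had been pin-tool dosed in 1536-well plates the day after seeding and cultured for 5 days, then fixed and stained in one step (final 0.05% Triton X-100, 1% formaldehyde, 1 ug/ml Hoechst) and imaged at 4×. Doses were one drug alone or a fixed anchor-drug dose plus five library-drug doses (not always all listed) in √10 steps, and values are duplicate-plate medians.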

Compound in the assay “Idelalisib + Palbociclib”: CC[C@H](Nc1ncnc2[nH]cnc12)c1nc2cccc(F)c2c(=O)n1-c1ccccc1 [Idelalisib] + CC(=O)c1c(C)c2cnc(Nc3ccc(N4CCNCC4)cn3)nc2n(C2CCCC2)c1=O [Palbociclib] (partner 0.5 µM)
An outline of the steps: as §1

Compound in the assay “Pemetrexed + Palbociclib”: Nc1nc2[nH]cc(CCc3ccc(C(=O)N[C@@H](CCC(=O)O)C(=O)O)cc3)c2c(=O)[nH]1 [Pemetrexed] + CC(=O)c1c(C)c2cnc(Nc3ccc(N4CCNCC4)cn3)nc2n(C2CCCC2)c1=O [Palbociclib] (partner 0.5 µM)
The procedure, abridged:
as §1

Compound in the assay “Idelalisib + Linsitinib”: CC[C@H](Nc1ncnc2[nH]cnc12)c1nc2cccc(F)c2c(=O)n1-c1ccccc1 [Idelalisib] + C[C@]1(O)C[C@@H](c2nc(-c3ccc4ccc(-c5ccccc5)nc4c3)c3c(N)nccn32)C1 [Linsitinib] (partner 1 µM)
The procedure, abridged: as §1

As to UMC-11, the relative viability with Pemetrexed + Decitabine (first compound 0.002 µM) worked out at 0.849; with Pemetrexed + Decitabine (first compound 0.006325 µM) it was 0.63; with Pemetrexed + Decitabine (first compound 0.02 µM), 0.595; with Pemetrexed + Decitabine (first compound 0.06325 µM), 0.58; in the assay with Pemetrexed + Decitabine (first compound 0.2 µM) it was 0.7; with Idelalisib + Palbociclib (first compound 0.04 µM), 0.335. The relative viability in the assay with Idelalisib + Palbociclib (first compound 0.1265 µM) was found to be 0.33; with Idelalisib + Palbociclib (first compound 0.4 µM) it was 0.298; with Idelalisib + Palbociclib (first compound 1.265 µM), 0.298; with Idelalisib + Palbociclib (first compound 4 µM), 0.261; in the assay with Pemetrexed + Palbociclib (first compound 0.002 µM), 0.344; in the assay with Pemetrexed + Palbociclib (first compound 0.006325 µM), 0.322. Moreover, the relative viability came out at 0.343 with Pemetrexed + Palbociclib (first compound 0.02 µM); 0.342 in the assay with Pemetrexed + Palbociclib (first compound 0.06325 µM); 0.357 with Pemetrexed + Palbociclib (first compound 0.2 µM); 0.912 with Idelalisib + Linsitinib (first compound 0.04 µM); 1.02 in the assay with Idelalisib + Linsitinib (first compound 0.1265 µM); 0.966 with Idelalisib + Linsitinib (first compound 0.4 µM). The values for the relative viability in the assay with Idelalisib + Linsitinib (first compound 1.265 µM) and in the assay with Idelalisib + Linsitinib (first compound 4 µM) were 1.01 and 1.06, respectively.
